Data: patent publication EP4624466A1, “DEGRADER FOR DECOMPOSING CMET PROTEIN, AND PHARMACEUTICAL COMPOSITION COMPRISING SAME” (Innocure Therapeutics, Inc., priority 2022, dated 2024)
Read-outs that look alike come from different tables or passages of the source.

Columns and labels:
c-MET = c-MET (Homo sapiens, UniProt P08581); assay: c-MET protein degradation (Simple Western), MKN-45; assay type: cell-based; set-up: assess the resolution of the compound of the present invention for c-MET expressed in cells; endogenous in cells; host or cells: MKN45 (human gastric cancer); conditions: c-MET overexpressing gastric cancer cell line MKN-45, treated 24 hours
Description: In order to assess the resolution of the compound of the present invention for c-MET expressed in cells, cells were dispensed in a 12-well plate at a concentration of 2 × 10^5 cells/well, and then gastric cancer cell lines were treated with samples for 24 hours and lung cancer cell lines were treated for 48 hours. Cell lysates were collected using a scraper on ice, centrifuged at 4°C15,000 rpm for 30 min to obtain a protein-containing supernatant. Protein expression was then measured using the Simple Western Automated Western Blot System Abby instrument using 3 µg of protein for each sample. SDS and heat-induced denaturation proteins were separated by molecular weight, attached to capillary, reacted with anti-c-MET or anti-GAPDH antibodies, which are primary antibodies, and then reacted with HRP-conjugated secondary antibodies, and analyzed the protein expression signal with compass software. Protein expression was normalized based on the expression value of GAPDH, and protein development in each sample was measured as a percentage (%) based on 100% of samples treated with 0.1% DMSO carriers, and DC50 (concentration of a compound where 50% protein inhibition is achieved) was calculated from the change in protein expression amount due to compound treatment.

MKN-45 = assay: Cell viability / antiproliferative assay (WST-8), MKN-45; conditions: read-out: MKN-45 IC50;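 also: MKN-45 is a human gastric cancer line overexpressing c-MET, growth inhibition read as WST-8 formazan absorbance at 450 nm after 2 h dye incubation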
Description: c-MET overexpressing human gastric cancer cell lines [MKN45] and [SNU638] were cultured in RPMI medium with 10% fetal bovine serum, penicillin (100U/ml), and streptomycin (100mg/ml), and c-MET exon 14 skipping mutant human gastric cancer cell lines [Hs746T] were cultured in DMEM media. The c-MET overexpressing human lung cancer cell line EBC-1 was cultured in MEM media with the addition of 10% fetal bovine serum, penicillin (100U/ml), and streptomycin (100mg/ml). […] The compound synthesized in accordance with the present invention was prepared with a raw material solution of 10 mM dissolved in DMSO (dimethyl sulfoxide), and was sequentially diluted and processed.
In order to observe the inhibitory activity on cell growth, cells were dispensed in a 96-well plate at a concentration of 5,000 cells/well, and then treated with the compound prepared at various concentrations for 72 hours. The viability of the cells was calculated using GraphicPad Prism 8.0 software by adding 10 ml per well of WST-8 (water soluble tetrazolium salt) sample, which reacts with dehydrogenase present in the electron transport system of mitochondria to produce formazon, incubated for 2 hours, and measured absorbance at 450 nm.

[1] = MKN-45 cells, 72 hours, WST-8, Table 2

Sequence of c-MET (P08581 25-1390): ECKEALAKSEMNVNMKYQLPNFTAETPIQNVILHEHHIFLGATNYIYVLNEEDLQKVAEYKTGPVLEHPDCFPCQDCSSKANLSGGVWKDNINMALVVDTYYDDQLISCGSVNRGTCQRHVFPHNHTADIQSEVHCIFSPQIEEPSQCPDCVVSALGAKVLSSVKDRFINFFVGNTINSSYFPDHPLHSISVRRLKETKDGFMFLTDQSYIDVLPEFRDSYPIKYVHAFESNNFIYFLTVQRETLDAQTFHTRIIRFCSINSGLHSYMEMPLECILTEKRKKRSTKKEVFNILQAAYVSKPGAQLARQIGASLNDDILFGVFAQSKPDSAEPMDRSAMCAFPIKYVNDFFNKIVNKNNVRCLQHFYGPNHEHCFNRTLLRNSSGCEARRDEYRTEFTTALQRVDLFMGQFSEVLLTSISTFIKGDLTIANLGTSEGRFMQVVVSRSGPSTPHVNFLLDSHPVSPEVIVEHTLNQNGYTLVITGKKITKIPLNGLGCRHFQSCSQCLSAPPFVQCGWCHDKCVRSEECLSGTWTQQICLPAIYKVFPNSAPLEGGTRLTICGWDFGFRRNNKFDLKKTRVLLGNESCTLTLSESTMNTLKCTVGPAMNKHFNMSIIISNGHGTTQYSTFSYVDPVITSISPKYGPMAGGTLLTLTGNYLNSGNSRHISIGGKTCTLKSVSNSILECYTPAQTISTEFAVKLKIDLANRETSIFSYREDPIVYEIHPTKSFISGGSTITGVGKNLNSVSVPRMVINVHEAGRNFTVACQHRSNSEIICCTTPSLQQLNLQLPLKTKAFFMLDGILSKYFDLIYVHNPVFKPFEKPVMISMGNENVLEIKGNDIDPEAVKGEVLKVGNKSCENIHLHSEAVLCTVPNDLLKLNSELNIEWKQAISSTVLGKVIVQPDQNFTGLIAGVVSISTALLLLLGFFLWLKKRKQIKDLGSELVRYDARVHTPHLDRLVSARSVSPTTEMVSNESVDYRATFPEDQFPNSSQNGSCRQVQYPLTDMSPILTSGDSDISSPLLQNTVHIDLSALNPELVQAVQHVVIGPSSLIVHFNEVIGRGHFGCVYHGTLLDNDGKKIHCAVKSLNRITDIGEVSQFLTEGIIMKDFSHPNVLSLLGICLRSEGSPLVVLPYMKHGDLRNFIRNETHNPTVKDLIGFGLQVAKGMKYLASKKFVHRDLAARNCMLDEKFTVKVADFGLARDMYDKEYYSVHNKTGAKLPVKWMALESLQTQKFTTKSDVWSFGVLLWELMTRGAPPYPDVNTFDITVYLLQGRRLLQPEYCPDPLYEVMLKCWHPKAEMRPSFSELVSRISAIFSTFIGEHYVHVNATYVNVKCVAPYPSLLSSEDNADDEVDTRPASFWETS

SMILES | DC50 (c-MET; Table 1) [nM] | IC50 (MKN-45; Homo sapiens, MKN-45, 72 h) [nM] | DC50 (c-MET; Table 2) [nM] | IC50 (MKN-45; [1]) [nM] | IC50 (MKN-45; MKN-45 cells, 72 hours, WST-8, Table 1) [nM]
Cn1cc(-c2cnc3c(nnn3C[C@@H]3CN(c4ncc(-c5ccc(CN6CCN(C(=O)CN7CCN(c8ccc9c(=O)n(C%10CCC(=O)NC%10=O)ncc9c8)CC7)CC6)cc5)cn4)CCO3)n2)cn1 (some centres unmarked) [ICT-0001109] | < 100 | < 100 |  |  | 
Cc1nn(C2CCC(=O)NC2=O)c(=O)c2ccc(N3CCN(CC(=O)N4CCC(COc5cnc(-c6cccc(Cn7nc(-c8cccc(C#N)c8)ccc7=O)c6)nc5)CC4)CC3)cc12 (centres unmarked) [ICT-0001173] |  | < 100 | < 100 |  | 
N#Cc1cccc(-c2ccc(=O)n(Cc3cccc(-c4ncc(OCC5CCN(CC(=O)NCCCCCc6ccc7c(=O)n(C8CCC(=O)NC8=O)ncc7c6)CC5)cn4)c3)n2)c1 (centres unmarked) [ICT-0001206] |  | < 100 | < 100 |  | 
Cc1nn(C2CCC(=O)NC2=O)c(=O)c2ccc(N3CCN(C[C@H]4CCN(CC(=O)N5CCC(COc6cnc(-c7cccc(Cn8nc(-c9cccc(C#N)c9)ccc8=O)c7)nc6)CC5)CO4)CC3)cc12 (some centres unmarked) [ICT-0001254] |  |  | 100 to 1000 | < 100 | 
Cc1nn(C2CCC(=O)NC2=O)c(=O)c2ccc(N3CCN(CC4CN(C(=O)CN5CCC(COc6cnc(-c7cccc(Cn8nc(-c9cccc(C#N)c9)ccc8=O)c7)nc6)CC5)C4)CC3)cc12 (centres unmarked) [ICT-0001235] |  | < 100 | < 100 |  | 
Cc1nn(C2CCC(=O)NC2=O)c(=O)c2ccc(N3CCN(C4CCN(C(=O)CN5CCC(COc6cnc(-c7cccc(Cn8nc(-c9cccc(C#N)c9)ccc8=O)c7)nc6)CC5)CC4)CC3)cc12 (centres unmarked) [ICT-0001237] |  | < 100 | < 100 |  | 
N#Cc1cccc(-c2ccc(=O)n(Cc3cccc(-c4ncc(OCC5CCN(C(=O)COCCOCCOCCNc6ccc7c(=O)n(C8CCC(=O)NC8=O)ncc7c6)CC5)cn4)c3)n2)c1 (centres unmarked) [ICT-0000987] |  |  | 100 to 1000 | < 100 | 
N#Cc1cccc(-c2ccc(=O)n(Cc3cccc(-c4ncc(OCC5CCN(C(=O)CCN6CCN(c7ccc8c(=O)n(C9CCC(=O)NC9=O)ncc8c7)CC6)CC5)cn4)c3)n2)c1 (centres unmarked) [ICT-0001199, 3-(1-{[3-(5-{[1-(3-{4-[2-(2,6-dioxopiperidin-3-yl)-1-oxo-1,2-dihydropthalazine-6-yl]piperazine-1-yl}propanoyl)piperidine-4-il]methoxy}pyrimidin-2-yl)phenyl]methyl}-6-oxo-1,6-dihydropyridazine-3-yl)benzonitrile] |  | < 100 | < 100 |  | 
N#Cc1cccc(-c2ccc(=O)n(Cc3cccc(-c4ncc(OCC5CCN(CC(=O)N6CCN(c7ccc8c(=O)n(C9CCC(=O)NC9=O)ncc8c7)CC6)CC5)cn4)c3)n2)c1 (centres unmarked) [ICT-0001221] |  | < 100 | < 100 |  | 
N#Cc1cccc(-c2ccc(=O)n(Cc3cccc(-c4ncc(OCC5CCN(C(=O)CCCCN6CCN(c7ccc8c(=O)n(C9CCC(=O)NC9=O)ncc8c7)CC6)CC5)cn4)c3)n2)c1 (centres unmarked) [ICT-0001201, 3-(1-{[3-(5-{[1-(5-{4-[2-(2,6-dioxopiperidin-3-yl)-1-oxo-1,2-dihydropetalazine-6-yl]piperazine-1-yl}pentanoyl)piperidine-4-il]methoxy}pyrimidine-2-yl)phenyl]methyl}6-oxo-1,6-dihydropyridazine-3-yl)benzonitrile] |  | < 100 | < 100 |  | 
Cc1nn(C2CCC(=O)NC2=O)c(=O)c2cc(N3CCC(CN4CCN(C(=O)CN5CCC(COc6cnc(-c7cccc(Cn8nc(-c9cccc(C#N)c9)ccc8=O)c7)nc6)CC5)CC4)CC3)ccc12 (centres unmarked) [ICT-0001234] |  | < 100 | > 1000 |  | 
Cc1nn(C2CCC(=O)NC2=O)c(=O)c2ccc(NCCOCCOCCOCCOCCC(=O)N3CCC(COc4cnc(-c5cccc(Cn6nc(-c7cccc(C#N)c7)ccc6=O)c5)nc4)CC3)cc12 (centres unmarked) [ICT-0001091] |  | < 100 | < 100 |  | 
Cc1nn(C2CCC(=O)NC2=O)c(=O)c2cc(N3CCC(CN4CCN(CC(=O)N5CCC(COc6cnc(-c7cccc(Cn8nc(-c9cccc(C#N)c9)ccc8=O)c7)nc6)CC5)CC4)CC3)ccc12 (centres unmarked) [ICT-0001239] |  | < 100 | < 100 |  | 
Cc1nn(C2CCC(=O)NC2=O)c(=O)c2cc(N3CCN(C(=O)CCCCN4CCC(COc5cnc(-c6cccc(Cn7nc(-c8cccc(C#N)c8)ccc7=O)c6)nc5)CC4)CC3)ccc12 (centres unmarked) [ICT-0001251] |  | < 100 | < 100 |  | 
N#Cc1cccc(-c2ccc(=O)n(Cc3cccc(-c4ncc(OCC5CCN(C(=O)CCCCCCNc6ccc7c(=O)n(C8CCC(=O)NC8=O)ncc7c6)CC5)cn4)c3)n2)c1 (centres unmarked) [ICT-0000985, 3-(1-{[3-(5-{[1-(7-{[2-(2,6-dioxopiperidin-3-yl)-1-oxo-1,2-dihydropthalazine-6-yl]amino}heptanoyl)piperidine-4-il]methoxy}pyrimidine-2-yl)phenyl]methyl}-6-oxo-1,6-dihydropyridazine-3-yl)benzonitrile] |  | < 100 | < 100 |  | 
Cc1nn(C2CCC(=O)NC2=O)c(=O)c2cc(N3CCN(CCCCC(=O)N4CCC(COc5cnc(-c6cccc(Cn7nc(-c8cccc(C#N)c8)ccc7=O)c6)nc5)CC4)CC3)ccc12 (centres unmarked) [ICT-0001217] |  | < 100 | < 100 |  | 
Cn1cc(-c2cnc3c(nnn3C[C@@H]3CN(c4ncc(-c5ccc(CN6CCN(C(=O)COCCOCCOCCOCCNc7ccc8c(=O)n(C9CCC(=O)NC9=O)ncc8c7)CC6)cc5)cn4)CCO3)n2)cn1 (stereo partly drawn) [ICT-0000939, 3-[6-(15-{4-[(4-{2-[(2S)-2-{[5-(1-methyl-1H-pyrazole-4-yl)-1H-[1,2,3]triazolo[4,5-b]pyrazine-1-yl]methyl}morpholine-4-il]pyrimidine-5-yl}phenyl)methyl]piperazine-1-yl}-15-oxo-4,7,10,13-tetraoxa-1-azpentadecan-1-yl)-1-oxo-1,2-dihydroptalazine-2-yl]piperidin-2,6-dione] | > 1000 |  |  |  | 100 to 1000
Cc1nn(C2CCC(=O)NC2=O)c(=O)c2ccc(N3CCN(CCCC(=O)N4CCC(COc5cnc(-c6cccc(Cn7nc(-c8cccc(C#N)c8)ccc7=O)c6)nc5)CC4)CC3)cc12 (centres unmarked) [ICT-0001175, 3-(1-(3-(5-((1-(4-(4-(2-(2,6-dioxopiperidine-3-yl)-4-methyl-1-oxo-1,2-dihydropthalazine-6-yl)piperazine-1-yl)butanoyl)piperidine-4-il)methoxy)pyrimidine-2-yl)benzyl)6-oxo-1,6-dihydropyridazine-3-yl)benzonitrile] |  | < 100 | < 100 |  | 
Cc1nn(C2CCC(=O)NC2=O)c(=O)c2ccc(N3CCC(CN4CCN(C(=O)CN5CCC(COc6cnc(-c7cccc(Cn8nc(-c9cccc(C#N)c9)ccc8=O)c7)nc6)CC5)CC4)CC3)cc12 (centres unmarked) [ICT-0001236] |  | < 100 | < 100 |  | 
Cn1cc(-c2cnc3c(nnn3C[C@@H]3CN(c4ncc(-c5ccc(CN6CCN(C(=O)CCCNc7cccc8cnn(C9CCC(=O)NC9=O)c(=O)c78)CC6)cc5)cn4)CCO3)n2)cn1 (some centres unmarked) [ICT-0000969] | < 100 | < 100 |  |  | 
Cc1nn(C2CCC(=O)NC2=O)c(=O)c2ccc(N3CCN(CCCCC(=O)N4CCC(COc5cnc(-c6cccc(Cn7nc(-c8cccc(C#N)c8)ccc7=O)c6)nc5)CC4)CC3)cc12 (centres unmarked) [ICT-0001176] |  | < 100 | < 100 |  | 
Cc1nn(C2CCC(=O)NC2=O)c(=O)c2ccc(N3CCN(CCC(=O)N4CCC(COc5cnc(-c6cccc(Cn7nc(-c8cccc(C#N)c8)ccc7=O)c6)nc5)CC4)CC3)cc12 (centres unmarked) [ICT-0001174] |  | < 100 | < 100 |  | 
N#Cc1cccc(-c2ccc(=O)n(Cc3cccc(-c4ncc(OCC5CCN(C(=O)COCCOCCOCCOCCNc6ccc7c(=O)n(C8CCC(=O)NC8=O)ncc7c6)CC5)cn4)c3)n2)c1 (centres unmarked) [ICT-0000988, 3-(1-{[3-(5-{[1-(14-{[2-(2,6-dioxopiperidin-3-yl)-1-oxo-1,2-dihydroptalazine-6-yl]amino}-3,6,9,12-tetradecanoyl)piperidin-4-yl]methoxy}pyrimidine-2-yl)phenyl]methyl}-6-oxo-1,6-dihydropyridazine-3-yl)benzonitrile] |  | 100 to 1000 | < 100 |  | 
Cc1nn(C2CCC(=O)NC2=O)c(=O)c2ccc(N3CCN(C(=O)CN4CCC(COc5cnc(-c6cccc(Cn7nc(-c8cccc(C#N)c8)ccc7=O)c6)nc5)CC4)CC3)cc12 (centres unmarked) [ICT-0001177, 3-(1-{[3-(5-{[1-(2-{4-[2-(2,6-dioxopiperidin-3-yl)-4-methyl-1-oxo-1,2-dihydropthalazine-6-yl]piperazine-1-yl}-2-oxoethyl)piperidine-4-yl]methoxy}pyrimidine-2-yl)phenyl]methyl}-6-oxo-1,6-dihydropyridazine-3-yl)benzonitrile] |  | < 100 | < 100 |  | 
Cc1nn(C2CCC(=O)NC2=O)c(=O)c2c(NCC(=O)N3CCC(COc4cnc(-c5cccc(Cn6nc(-c7cccc(C#N)c7)ccc6=O)c5)nc4)CC3)cccc12 (centres unmarked) [ICT-0000981] |  | < 100 | > 1000 |  | 
